Measurements: patent publication US12493040B2, “Cancer detection method using sense of smell of nematode” (HIROTSU BIO SCIENCE INC., priority 2013, dated 2025)

Test system: RNAi-treated eri-1 (mg366) nematodes
Assay: RNAi screening of olfactory receptor genes: chemotaxis assay of RNAi-treated nematodes to odorants
Type: in vivo, Caenorhabditis elegans
Conditions: low concentration of attractant
Outline: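 eri-1 (mg366) worms knocked down by feeding RNAi (Ahringer library) on IPTG/ampicillin NGM plates with E. coli for 4 days, then tested for chemotaxis, 30–50 worms per assay. Odorants at 1 μl of 10^−3 or 10^−4 dilution, or 1 and 5 μl undiluted. Hits scored by z score, thresholds ±1.96 (P<0.05) or ±0.96.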

CCC(C)=O [butanone]
chemotaxis index (Control nematodes): 0.65 ± 0.021 | chemotaxis index (srh-10 RNAi-treated nematodes): −0.65 | chemotaxis index (srh-11 RNAi-treated nematodes): −0.15 | chemotaxis index (srh-15 RNAi-treated nematodes): 0.55 | chemotaxis index (srh-16 RNAi-treated nematodes): 0.74 | chemotaxis index (srh-18 RNAi-treated nematodes): 0.52 | chemotaxis index (srh-19 RNAi-treated nematodes): 0.89 | chemotaxis index (srh-22 RNAi-treated nematodes): 0.19 | chemotaxis index (srh-23 RNAi-treated nematodes): 0.67 | chemotaxis index (srh-24 RNAi-treated nematodes): 0.59 | chemotaxis index (srh-25 RNAi-treated nematodes): 0.72 | chemotaxis index (srh-27 RNAi-treated nematodes): 0.63 | chemotaxis index (srh-28 RNAi-treated nematodes): 0.55 | chemotaxis index (srh-36 RNAi-treated nematodes): 0.37 | chemotaxis index (srh-37 RNAi-treated nematodes): 0.37 | chemotaxis index (srh-39 RNAi-treated nematodes): 0.48 | chemotaxis index (srh-40 RNAi-treated nematodes): 0.94 | chemotaxis index (srh-41 RNAi-treated nematodes): 0.64 | chemotaxis index (srh-44 RNAi-treated nematodes): 0.82 | chemotaxis index (srh-45 RNAi-treated nematodes): 0.73 | chemotaxis index (srh-46 RNAi-treated nematodes): 0.82 | chemotaxis index (srh-48 RNAi-treated nematodes): 0.55 | chemotaxis index (srh-49 RNAi-treated nematodes): 0.80 | chemotaxis index (srh-50 RNAi-treated nematodes): 0.87 | chemotaxis index (srh-51 RNAi-treated nematodes): 0.70 | chemotaxis index (srh-52 RNAi-treated nematodes): 0.69 | chemotaxis index (srh-55 RNAi-treated nematodes): 0.43 | chemotaxis index (srh-59 RNAi-treated nematodes): 0.51 | chemotaxis index (srh-60 RNAi-treated nematodes): 0.79 | chemotaxis index (srh-61 RNAi-treated nematodes): 0.74 | chemotaxis index (srh-67 RNAi-treated nematodes): 0.85 | chemotaxis index (srh-68 RNAi-treated nematodes): 0.67 | chemotaxis index (srh-69 RNAi-treated nematodes): 0.66 | chemotaxis index (srh-70 RNAi-treated nematodes): 0.43 | chemotaxis index (srh-71 RNAi-treated nematodes): 0.76 | chemotaxis index (srh-72 RNAi-treated nematodes): 0.58 | chemotaxis index (srh-74 RNAi-treated nematodes): 0.76 | chemotaxis index (srh-75 RNAi-treated nematodes): 0.76 | chemotaxis index (srh-77 RNAi-treated nematodes): 0.70 | chemotaxis index (srh-79 RNAi-treated nematodes): 0.58 | chemotaxis index (srh-80 RNAi-treated nematodes): 0.64 | chemotaxis index (srh-82 RNAi-treated nematodes): 0.79 | chemotaxis index (srh-83 RNAi-treated nematodes): 0.71 | chemotaxis index (srh-97 RNAi-treated nematodes): 0.80 | chemotaxis index (srh-99 RNAi-treated nematodes): 0.75 | chemotaxis index (srh-100 RNAi-treated nematodes): 0.80 | chemotaxis index (srh-104 RNAi-treated nematodes): 0.48 | chemotaxis index (srh-105 RNAi-treated nematodes): 0.76 | chemotaxis index (srh-109 RNAi-treated nematodes): 0.89 | chemotaxis index (srh-111 RNAi-treated nematodes): 0.59 | chemotaxis index (srh-113 RNAi-treated nematodes): 0.30 | chemotaxis index (srh-115 RNAi-treated nematodes): 0.70 | chemotaxis index (srh-116 RNAi-treated nematodes): 0.56 | chemotaxis index (srh-118 RNAi-treated nematodes): 0.60 | chemotaxis index (srh-119 RNAi-treated nematodes): 0.50 | chemotaxis index (srh-120 RNAi-treated nematodes): 0.78 | chemotaxis index (srh-122 RNAi-treated nematodes): 0.58 | chemotaxis index (srh-123 RNAi-treated nematodes): 0.84 | chemotaxis index (srh-125 RNAi-treated nematodes): 0.76 | chemotaxis index (srh-128 RNAi-treated nematodes): 0.69 | chemotaxis index (srh-129 RNAi-treated nematodes): 0.63 | chemotaxis index (srh-130 RNAi-treated nematodes): 0.82 | chemotaxis index (srh-214 RNAi-treated nematodes): 0.85 | chemotaxis index (srh-216 RNAi-treated nematodes): 0.86 | chemotaxis index (srh-217 RNAi-treated nematodes): 0.69 | chemotaxis index (srh-220 RNAi-treated nematodes): 0.81 | chemotaxis index (srh-222 RNAi-treated nematodes): 0.62 | chemotaxis index (srh-223 RNAi-treated nematodes): 0.88 | chemotaxis index (srh-227 RNAi-treated nematodes): 0.37 | chemotaxis index (srh-229 RNAi-treated nematodes): 0.60 | chemotaxis index (srh-233 RNAi-treated nematodes): 0.50 | chemotaxis index (srh-235 RNAi-treated nematodes): 0.76 | chemotaxis index (srh-236 RNAi-treated nematodes): 0.71 | chemotaxis index (srh-239 RNAi-treated nematodes): 0.59 | chemotaxis index (srh-241 RNAi-treated nematodes): 0.63 | chemotaxis index (srh-243 RNAi-treated nematodes): 0.72 | chemotaxis index (srh-244 RNAi-treated nematodes): 0.73 | chemotaxis index (srh-247 RNAi-treated nematodes): 0.85 | chemotaxis index (srh-250 RNAi-treated nematodes): 0.79 | chemotaxis index (srh-251 RNAi-treated nematodes): 0.92 | chemotaxis index (srh-252 RNAi-treated nematodes): 0.86 | chemotaxis index (srh-258 RNAi-treated nematodes): 0.56 | chemotaxis index (srh-261 RNAi-treated nematodes): 0.60 | chemotaxis index (srh-264 RNAi-treated nematodes): 0.56 | chemotaxis index (srh-266 RNAi-treated nematodes): −0.31 | chemotaxis index (srh-274 RNAi-treated nematodes): −0.59 | chemotaxis index (srh-275 RNAi-treated nematodes): −0.29 | chemotaxis index (srh-276 RNAi-treated nematodes): 0.30 | chemotaxis index (srh-277 RNAi-treated nematodes): −0.09 | chemotaxis index (srh-279 RNAi-treated nematodes): 0.89 | chemotaxis index (srh-281 RNAi-treated nematodes): 0.49 | chemotaxis index (srh-282 RNAi-treated nematodes): 0.80 | chemotaxis index (srh-283 RNAi-treated nematodes): 0.65 | chemotaxis index (srh-284 RNAi-treated nematodes): 0.73 | chemotaxis index (srh-291 RNAi-treated nematodes): 0.86 | chemotaxis index (srh-292 RNAi-treated nematodes): 0.80 | chemotaxis index (srh-293 RNAi-treated nematodes): 0.75 | chemotaxis index (srh-297 RNAi-treated nematodes): 0.84 | chemotaxis index (srh-298 RNAi-treated nematodes): 0.65 | chemotaxis index (srh-308 RNAi-treated nematodes): 0.04
